# Values quoted from earlier work in US20100210653A1, “Novel Compounds, Their Preparations and Use” (HIGH POINT PHARMACEUTICALS, LLC, priority 2004, published 2010).
# Tests used:
# [1] = system: high fat diet induced insulin resistant mice and diabetic ob/ob; settings: PNAS 2003, 100, 15924-15929
# [2] = system: C2C12 muscle cells; settings: in vitro treatment, two publications
compound,measurement,setting,value
Cc1cc(SCc2sc(-c3ccc(C(F)(F)F)cc3)nc2C)ccc1OCC(=O)O [GW501516],insulin sensitivity,[1],improved insulin sensitivity
same,plasma glucose and insulin,[1],lowering of plasma glucose and insulin
same,"regulation of genes (LPL, ACS4, CTP1, PDK4, UCP1, -2, -3, ABCA1/G1)",[2],regulation of genes involved with TG hydrolysis and FFA oxidation
